Source: US8192962B2, “Processes for detecting toxic substances” (Daikin Industries, Ltd., priority 2001, dated 2012)

Test system: Genes belonging to other category
Assay: DNA chip mRNA expression in yeast, genes belonging to other category (Table 9)
Format: cell-based, Saccharomyces cerevisiae S288C
Method: Yeast (Saccharomyces cerevisiae S288C (α SUC2mal mel gap2 CUP1)) were incubated at 25° C. on YPD medium (yeast extract 1%, polypepton 2%, glucose 2%). One of toxic chemical substances was added to the cells at logarithmic growth phase, and the cells were further incubated for two hours. Cells were cultured without any chemical substance in the same condition, and were used as control. Concentrations of the chemical substances were defined to inhibit the growth of the yeast but not lead to death.
After completion of the incubation, the culture was centrifuged to collect the cells. To the cells, sodium acetate buffer (50 mM sodium acetate, 10 mM EDTA, 1% SDS) was added, and the mixture was shaken at 65° C. for five minutes, followed by returning to room temperature, and obtaining the supernatant, of which the procedures were repeated two times. To the supernatant, ½ amount of a solution of phenol/chloroform was added, and the mixture was centrifuged to give a supernatant, which was added with an equal amount of chloroform, and the mixture was centrifuged to give a supernatant. To the supernatant, an equal amount of isopropanol containing 0.3 M sodium acetate was added, and the mixture was allowed to stand at room temperature for 30 minutes, after which the mixture was centrifuged to give a sediment of the whole RNAs. Seventy % ethanol was added to the sediment, and the mixture was again centrifuged to give a sediment, which was then dried and dissolved in water. mRNA was isolated from the whole RNAs as followings. In view of the fact that a poly A chain is attached to the 3′ terminus of mRNA, a polynucleotide having a poly T structure which was immobilized on the surface of latex beads was used to trap the mRNA, and then the mRNA was washed and eluted with spine column (Oligotex-dT30<Super>mRNA Purification Kit, Takara). Reverse transcription of the mRNA was conducted with a reverse transcriptase (Super Script II Reverse Transcriptase; catalogue No. 18064-014, GibcoBRL) using fluorescence-labeled nucleotides to give cDNAs that were introduced with Cy3-dUTP or Cy5-dUTP during the reverse transcription.
The labeled cDNAs were dissolved in TE buffer (10mM Tris-HCl/1 mM EDTA, pH8.0), and the solution was dropped on the DNA chip containing the whole genes of yeast (DNA Chip Research Inc. Japan) so that the cDNAs were hybridized on the DNA chip at 65° C. for over 12 hours. The fluoresces intensity of the DNA chip was read with a scanner, and the ratio relative to the fluorescence intensity resulting from the absence of chemical substance was estimated as the following, which is shown in Tables 1 to 9: […]

Oc1cc(Cl)c(Cl)cc1Cl [(6), 2,4,5-trichlorophenol]
The level of expressed mRNA in the presence of chemical substance/The level of expressed mRNA in the absence of chemical substance (yeast gene YMR275C): 1.4
The level of expressed mRNA in the presence of chemical substance/The level of expressed mRNA in the absence of chemical substance (yeast gene YMR276W): 0.8
The level of expressed mRNA in the presence of chemical substance/The level of expressed mRNA in the absence of chemical substance (yeast gene YMR297W): 1.8
The level of expressed mRNA in the presence of chemical substance/The level of expressed mRNA in the absence of chemical substance (yeast gene YMR314W): 1.3
The level of expressed mRNA in the presence of chemical substance/The level of expressed mRNA in the absence of chemical substance (yeast gene YNL006W): 1.0
The level of expressed mRNA in the presence of chemical substance/The level of expressed mRNA in the absence of chemical substance (yeast gene YNL007C): 0.6
The level of expressed mRNA in the presence of chemical substance/The level of expressed mRNA in the absence of chemical substance (yeast gene YNL069C): 0.4
The level of expressed mRNA in the presence of chemical substance/The level of expressed mRNA in the absence of chemical substance (yeast gene YNL093W): 1.6
The level of expressed mRNA in the presence of chemical substance/The level of expressed mRNA in the absence of chemical substance (yeast gene YNL333W): 1.5
The level of expressed mRNA in the presence of chemical substance/The level of expressed mRNA in the absence of chemical substance (yeast gene YNR010W): 1.3
The level of expressed mRNA in the presence of chemical substance/The level of expressed mRNA in the absence of chemical substance (yeast gene YNR069C): 1.7
The level of expressed mRNA in the presence of chemical substance/The level of expressed mRNA in the absence of chemical substance (yeast gene YOL013C): 1.1
The level of expressed mRNA in the presence of chemical substance/The level of expressed mRNA in the absence of chemical substance (yeast gene YOL039W): 0.4
The level of expressed mRNA in the presence of chemical substance/The level of expressed mRNA in the absence of chemical substance (yeast gene YOL120C): 0.3
The level of expressed mRNA in the presence of chemical substance/The level of expressed mRNA in the absence of chemical substance (yeast gene YOL164W): 1.2
The level of expressed mRNA in the presence of chemical substance/The level of expressed mRNA in the absence of chemical substance (yeast gene YOR023C): 1.8
The level of expressed mRNA in the presence of chemical substance/The level of expressed mRNA in the absence of chemical substance (yeast gene YOR036W): 1.7
The level of expressed mRNA in the presence of chemical substance/The level of expressed mRNA in the absence of chemical substance (yeast gene YOR117W): 1.1
The level of expressed mRNA in the presence of chemical substance/The level of expressed mRNA in the absence of chemical substance (yeast gene YOR124C): 0.9
The level of expressed mRNA in the presence of chemical substance/The level of expressed mRNA in the absence of chemical substance (yeast gene YOR132W): 1.6
The level of expressed mRNA in the presence of chemical substance/The level of expressed mRNA in the absence of chemical substance (yeast gene YOR133W): 0.9
The level of expressed mRNA in the presence of chemical substance/The level of expressed mRNA in the absence of chemical substance (yeast gene YOR134W): 1.4
The level of expressed mRNA in the presence of chemical substance/The level of expressed mRNA in the absence of chemical substance (yeast gene YOR157C): 1.2
The level of expressed mRNA in the presence of chemical substance/The level of expressed mRNA in the absence of chemical substance (yeast gene YOR181W): 0.9
The level of expressed mRNA in the presence of chemical substance/The level of expressed mRNA in the absence of chemical substance (yeast gene YOR185C): 3.0
The level of expressed mRNA in the presence of chemical substance/The level of expressed mRNA in the absence of chemical substance (yeast gene YOR198C): 0.9
The level of expressed mRNA in the presence of chemical substance/The level of expressed mRNA in the absence of chemical substance (yeast gene YOR259C): 0.8
The level of expressed mRNA in the presence of chemical substance/The level of expressed mRNA in the absence of chemical substance (yeast gene YOR261C): 1.4
The level of expressed mRNA in the presence of chemical substance/The level of expressed mRNA in the absence of chemical substance (yeast gene YOR288C): 1.0
The level of expressed mRNA in the presence of chemical substance/The level of expressed mRNA in the absence of chemical substance (yeast gene YOR327C): 1.4
The level of expressed mRNA in the presence of chemical substance/The level of expressed mRNA in the absence of chemical substance (yeast gene YOR355W): 1.6
The level of expressed mRNA in the presence of chemical substance/The level of expressed mRNA in the absence of chemical substance (yeast gene YOR362C): 1.4
The level of expressed mRNA in the presence of chemical substance/The level of expressed mRNA in the absence of chemical substance (yeast gene YOR383C): 6.8
The level of expressed mRNA in the presence of chemical substance/The level of expressed mRNA in the absence of chemical substance (yeast gene YPL089C): 0.8
The level of expressed mRNA in the presence of chemical substance/The level of expressed mRNA in the absence of chemical substance (yeast gene YPL109C): 1.2
The level of expressed mRNA in the presence of chemical substance/The level of expressed mRNA in the absence of chemical substance (yeast gene YPL149W): 0.9
The level of expressed mRNA in the presence of chemical substance/The level of expressed mRNA in the absence of chemical substance (yeast gene YPL154C): 3.5
The level of expressed mRNA in the presence of chemical substance/The level of expressed mRNA in the absence of chemical substance (yeast gene YPR028W): 1.4
The level of expressed mRNA in the presence of chemical substance/The level of expressed mRNA in the absence of chemical substance (yeast gene YPR080W): 1.4
The level of expressed mRNA in the presence of chemical substance/The level of expressed mRNA in the absence of chemical substance (yeast gene YPR103W): 1.2
The level of expressed mRNA in the presence of chemical substance/The level of expressed mRNA in the absence of chemical substance (yeast gene YPR108W): 1.5
The level of expressed mRNA in the presence of chemical substance/The level of expressed mRNA in the absence of chemical substance (yeast gene YPR168W): 0.4
